Test results: patent US20230381349A1, “METHODS AND COMPOSITIONS FOR IMAGING AND TREATING CANCER” (WASHINGTON UNIVERSITY, priority 2020, published 2023)

Tests used:
KI cells = experiment: In vitro cytotoxicity (WST-1 cell viability) assay; type: cell-based; conditions: Mus musculus, 72 h, 3 days continuous drug treatment
Description: All cells were cultured at 37° C., 5% C02, and 95% humidity.
The KI Cells were seeded into 96-well plates at a density of 5000 cells per well. 24 hrs later, the medium was replaced by fresh medium containing TA-PEG-Gem and Gem at the indicated concentration (range, 0-500 μM), respectively. All experimental incubation conditions were performed at least in triplicate. Cell viability was determined after 3 days of continuous drug treatment using the WST-1 cell cytotoxicity assay (Roche, Basel, Switzerland) following the manufacturer's instruction. Briefly, 10 μl WST-1 reagent was added in each well followed by additional incubation for 4 h. The absorbance at 440 nm was measured using a microplate reader. IC50 was calculated using GraphPad Prism 7.03 software (GraphPad Software, San Diego, CA).

KI tumor = experiment: Treatment efficacy in KI xenograft model; type: in vivo, mouse; conditions: for median survival: KI mice
Description: A KI xenograft model was used to monitor tumor growth trends and treatment efficacy of CuNPs-ECL1i-Gem. 10 days after tumor implantation, mice were randomized into 5 groups (n=5/group): (1) CuNPs-ECL1i-Gem (Cu mass: 10 mg/kg body weight, Gem: 3.4±0.8 mg/kg body weight, I.V. injection, twice per week); (2) CuNPs-ECL1i (same CuNPs-NT dose as (1), I.V. injection, twice per week); (3) gemcitabine 7 mg/kg body weight (I.V. injection, twice per week); (4) gemcitabine 100 mg/kg body weight (I. P. injection, once per week); (5) saline (100 μL, I.V. injection, twice per week). For the 2nd treatment study, the mice started dose administration at 7 days post implantation. The dose regimens of CuNPs-NT-Gem and CuNPs-ECL1i-Gem were the same as the 1st treatment study. The Cu mass was limited to a dosage of 10 mg/kg for all nanoparticle groups, and the relative loaded gemcitabine dose was 3.4±0.8 mg/kg body weight. […] Tumor volume was calculated as (length×width2)/2. The treatment was continued for 6 successive weeks or until the mice died or were sacrificed and deemed as dead when their tumor volume reached over 2000 mm^3. After treatment, the tumors were collected for H&E staining.

Nc1ccn([C@@H]2O[C@H](CO)[C@@H](O)C2(F)F)c(=O)n1 [Gem, gemcitabine] showed an IC50 (KI cells) of 19.7 µM, a median survival (KI tumor; start day 10, high dose 100 mg/kg I.P. once per week) of 26 days and a median survival (KI tumor; start day 10, low dose 7 mg/kg I.V. twice per week) of 25 days. For the same compound, the “tumor growth effect compared to saline” value (KI tumor; start day 10, high dose 100 mg/kg I.P.) was “did not show any treatment benefit” and the “tumor growth effect compared to saline” value (KI tumor; start day 10, low dose 7 mg/kg I.V.) was “did not show any treatment benefit”.
